In ChEMBL document CHEMBL5724914, “Linking interpersonal differences in gut microbiota composition and drug biotransformation activity” (2024):

Tests used:
[1] = (§1) The drug is tested on Z-030 corresponding to mouse gut metagenome with ENA study accession number: PRJEB37062 and ENA sample accession number: ERS12561829 for biotransformation under anaerobic condition. The drug concentrations were measured over 9 timepoints collected between 0 and 24 hours of incubation by liquid-chromatography-coupled mass spectrometry (LC–MS); details: 2 µM
[2] = as §1, with “WLS-310” for “Z-030”, “human” for “mouse”, “ERS12561785” for “ERS12561829”; details: 2 µM
[3] = human gut metagenome, 24 h, 2 µM
[4] = as §1, with “WLS-052” for “Z-030”, “human” for “mouse”, “ERS12561747” for “ERS12561829”; details: 2 µM
[5] = human gut metagenome, 24 h, 2 µM; remark: listed apart in the source
[6] = human gut metagenome, 24 h, 2 µM; remark: listed apart in the source
[7] = as §1, with “WLS-077” for “Z-030”, “human” for “mouse”, “ERS12561750” for “ERS12561829”; details: 2 µM
[8] = as §1, with “Z-001” for “Z-030”, “ERS12561801” for “ERS12561829”; details: 2 µM
[9] = human gut metagenome, 24 h, 2 µM; remark: listed apart in the source
[10] = human gut metagenome, 24 h, 2 µM; remark: listed apart in the source
[11] = human gut metagenome, 24 h, 2 µM; remark: listed apart in the source
[12] = human gut metagenome, 24 h, 2 µM; remark: listed apart in the source
[13] = as §1, with “Z-026” for “Z-030”, “to” for “to mouse gut”, “ERS12561825” for “ERS12561829”; details: 2 µM
[14] = as §1, with “WLS-073” for “Z-030”, “human” for “mouse”, “ERS12561749” for “ERS12561829”; details: 2 µM
[15] = human gut metagenome, 24 h, 2 µM; remark: listed apart in the source
[16] = human gut metagenome, 24 h, 2 µM; remark: listed apart in the source
[17] = human gut metagenome, 24 h, 2 µM; remark: listed apart in the source
[18] = as §1, with “Z-014” for “Z-030”, “rat” for “mouse”, “ERS12561814” for “ERS12561829”; details: 2 µM
[19] = as §1, with “WLS-370” for “Z-030”, “human” for “mouse”, “ERS12561793” for “ERS12561829”; details: 2 µM
[20] = human gut metagenome, 24 h, 2 µM; remark: listed apart in the source
Further: call rule not given here.

Bacterial Biotransformation [1] | Bacterial Biotransformation [2] | Bacterial Biotransformation [3] | Bacterial Biotransformation [4] | Bacterial Biotransformation [5] | Bacterial Biotransformation [6] | Bacterial Biotransformation [7] | Bacterial Biotransformation [8] | Bacterial Biotransformation [9] | Bacterial Biotransformation [10] | Bacterial Biotransformation [11] | Bacterial Biotransformation [12] | Bacterial Biotransformation [13] | Bacterial Biotransformation [14] | Bacterial Biotransformation [15] | Bacterial Biotransformation [16] | Bacterial Biotransformation [17] | Bacterial Biotransformation [18] | Bacterial Biotransformation [19] | Bacterial Biotransformation [20] | SMILES
Compound NOT metabolized | Compound metabolized | Compound metabolized | Compound metabolized | Compound NOT metabolized | Compound metabolized | Compound metabolized | Compound metabolized | Compound metabolized | Compound NOT metabolized | Compound metabolized | Compound metabolized | Compound metabolized | Compound metabolized | Compound NOT metabolized | Compound metabolized | Compound metabolized | Compound NOT metabolized | Compound metabolized | Compound metabolized | Nc1nc2ccc(OC(F)(F)F)cc2s1 [RILUZOLE]
Compound NOT metabolized | Compound metabolized | Compound metabolized | Compound metabolized | Compound NOT metabolized | Compound metabolized | Compound metabolized | Compound NOT metabolized | Compound metabolized | Compound NOT metabolized | Compound metabolized | Compound metabolized | Compound metabolized | Compound metabolized | Compound NOT metabolized | Compound metabolized | Compound metabolized | Compound metabolized | Compound metabolized | Compound metabolized | CC(C)c1nc(CN(C)C(=O)N[C@H](C(=O)N[C@@H](Cc2ccccc2)C[C@H](O)[C@H](Cc2ccccc2)NC(=O)OCc2cncs2)C(C)C)cs1 [RITONAVIR]
Compound NOT metabolized | Compound NOT metabolized | Compound NOT metabolized | Compound NOT metabolized | Compound NOT metabolized | Compound NOT metabolized | Compound NOT metabolized | Compound NOT metabolized | Compound NOT metabolized | Compound NOT metabolized | Compound NOT metabolized | Compound NOT metabolized | Compound NOT metabolized | Compound NOT metabolized | Compound NOT metabolized | Compound NOT metabolized | Compound NOT metabolized | Compound NOT metabolized | Compound NOT metabolized | Compound NOT metabolized | CC(C)NCC(O)c1ccc(NS(C)(=O)=O)cc1 (stereo not given) [SOTALOL]
Compound NOT metabolized | Compound metabolized | Compound NOT metabolized | Compound NOT metabolized | Compound NOT metabolized | Compound NOT metabolized | Compound metabolized | Compound metabolized | Compound metabolized | Compound metabolized | Compound metabolized | Compound metabolized | Compound NOT metabolized | Compound NOT metabolized | Compound NOT metabolized | Compound NOT metabolized | Compound NOT metabolized | Compound NOT metabolized | Compound NOT metabolized | Compound metabolized | CCN1CCCC1CNC(=O)c1cc(S(N)(=O)=O)ccc1OC (stereo not given) [SULPIRIDE]
